Reference: patent publication US20210087548A1, “Compositions and Methods for Inducing Protein Function” (priority 2017, published 2021)
pEC50: −log10 of the molar value.

What was measured:
human VEGFA locus = assay type: cell-based; conditions: for VEGF concentration, empty vector control cells in respective drug (average): HEK293A, 48 hrs, average of 3 independent experiments
HCV genotype 1a NS3 Wt = conditions: in vitro replication assay; cited from earlier work
HCV genotype 1a NS3 V36M = conditions: in vitro replication assay; cited from earlier work
HCV genotype 1a NS3 T54A = conditions: in vitro replication assay; cited from earlier work
[1] = system: HCV genotype 1a NS3 S122G; conditions: in vitro replication assay; cited from earlier work
HCV genotype 1a NS3 F43L = conditions: in vitro replication assay; cited from earlier work
HCV genotype 1a NS3 Q80K = conditions: in vitro replication assay; cited from earlier work
[2] = system: HCV genotype 1a NS3 S122R; conditions: in vitro replication assay; cited from earlier work
[3] = system: HCV genotype 1a NS3 D168Y; conditions: in vitro replication assay; cited from earlier work

| SMILES | VEGF amounts in the culture medium (human VEGFA locus; HEK293A co-transfected with ZF-StaPL(ti)-tdRFP-KRAB and ZF-StaPL(ai)-YFP-VPR) | VEGF concentration, empty vector control cells in respective drug (average) (human VEGFA locus) [pg/mL] | pEC50 (HCV genotype 1a NS3 Wt) | pEC50 (HCV genotype 1a NS3 V36M) | pEC50 (HCV genotype 1a NS3 T54A) | pEC50 [1] | pEC50 (HCV genotype 1a NS3 F43L) | pEC50 (HCV genotype 1a NS3 Q80K) | pEC50 [2] | pEC50 [3] |
| --- | --- | --- | --- | --- | --- | --- | --- | --- | --- | --- |
| C=C[C@@H]1C[C@]1(NC(=O)[C@@H]1C[C@@H](Oc2ncc(OC)c3ccc(Cl)cc23)CN1C(=O)[C@@H](NC(=O)OC(C)(C)C)C(C)(C)C)C(=O)NS(=O)(=O)C1CC1 [ASV, asunaprevir] | increased | 673 | 9.12 | 8.82 | 9.48 | 9.19 | 8.57 | 8.60 | 8.59 | 6.33 |
| CCC[C@H](NC(=O)[C@@H]1[C@H]2CCC[C@H]2CN1C(=O)[C@@H](NC(=O)[C@@H](NC(=O)c1cnccn1)C1CCCCC1)C(C)(C)C)C(=O)C(=O)NC1CC1 [TPV, telaprevir] | – | 930 | – | – | – | – | – | – | – | – |
